Publication PMC4501059, “Responding to the challenge of untreatable gonorrhea: ETX0914, a first-in-class agent with a distinct mechanism-of-action against bacterial Type II topoisomerases” (Scientific Reports, 2015)
Values after ≈ are worked out from the molar mass of the structure shown. Like-named read-outs stand apart in the source and are kept apart here.

What was measured:
[1] = tested on: Mycoplasma genitalium; set-up: method as in ref 3 (supplement); details: 11 tested; ref 3 (supplement); cited from earlier work
[2] = CV dog telemetry (single dose, iv); details: for Cmax: plasma
[3] = tested on: MRSA ATCC33591; test: MIC (modal, CLSI broth microdilution); type: cell-based, S. aureus; details: Staphylococcus aureus, read-out: Modal MIC
[4] = tested on: Mycoplasma pneumoniae; set-up: method as in ref 3 (supplement); details: 21 tested; ref 3 (supplement); cited from earlier work
[5] = tested on: N. gonorrhoeae; test: clinical PK/PD magnitude, gonococcal infection
[6] = Human plasma protein binding (PPB); details: plasma
[7] = tested on: S. aureus; details: 4X MIC, various strains; cited from earlier work
[8] = tested on: Haemophilus influenzae; set-up: method as in ref 2 (supplement); details: 352 tested; ref 2 (supplement); cited from earlier work
[9] = tested on: N. gonorrhoeae ARC4676 (QR); type: cell-based
[10] = tested on: mouse lymphoma cells; test: in vitro mouse micronucleus aberration assay (MMA); type: cell-based; details: in vitro
Procedure: In vitro toxicology. Experiments for assessing micronuclei in mouse lymphoma cells^19 myeloid cytotoxicity^20 and erythroid cytotoxicity^21 were performed as described previously.

[11] = tested on: Streptococcus pyogenes; set-up: method as in ref 2 (supplement); details: 1358 tested; ref 2 (supplement); cited from earlier work
[12] = target: Iks/Kv7.1 (Homo sapiens, UniProt P51787); test: In vitro ion channel function; type: cell-based; details: Iks/Kv7.1 IC50, Slowly activating K^+ delayed rectifier
Text: (§1) Supplement srep11827-s1.doc, table 3 | column: Table S2: In vitro ion channel function IC50 (µM)

[13] = target: hNav1.5 (Homo sapiens, UniProt Q14524); test: In vitro ion channel function; type: cell-based; details: hNav1.5 IC50, Initiation of cardiac action potential/QRS interval
Text: as §1

[14] = target: Kv1.5 (Homo sapiens, UniProt P22460); test: In vitro ion channel function; type: cell-based; details: Ikr/Kv1.5 IC50, Rapidly activating K^+ delayed rectifier
Text: as §1

[15] = 28 day oral toxicology study, rat; type: in vivo, Han Wistar rat; details: for NOAEL at 28 days: in vivo
Procedure: The following dosing formulation for rat and dog 28 day PO studies was used: a 100 mg/mL stock of ETX0914 in 5% dextrose and 2.5M meglumine adjusted to pH 9 using 5M HCl or 2.5M meglumine. The dosing formulations were diluted as required with phosphate buffered saline and dispensed daily. […] A control group of 10 male and 10 females were given the vehicle only. An additional 3 animals per sex were allocated to each group for toxicokinetics wherein blood samples (1 mL) from the tail vein pre-trial and on Day 27 were collected. […] Animals were terminated by exposure to CO2. The following were assessed: clinical observations, body weight, food consumption, body temperature, hematology, plasma chemistry, toxicokinetics and gross and microscopic pathology.

[16] = plasma protein binding, dog; type: in vitro ADME; details: in vitro at 1-50 µM
Text: Supplement srep11827-s1.doc, table 4 | column: Beagle dog (male)

[17] = Single dose pharmacokinetics, mouse; type: in vivo, CD-1 mouse
Procedure: AZD0914 was analyzed in mouse, rat, dog, monkey plasma using a qualified method which was later validated for human plasma analysis. The validated human method is described below and is representative of the approach taken in other species. AZD0914 was determined in human plasma prepared with K2EDTA as an anticoagulant. AZD0914 and an internal standard (^13C2, ^15N2 AZD0914) were extracted from plasma with tert- butyl methyl ether. After evaporating to dryness under a stream of nitrogen, the residue was reconstituted and quantitated by reverse phase HPLC-MS/MS against a standard curve from 1.00 to 5000 ng/ml. Separation was achieved using a gradient which went from 55% to 85% methanol:acetonitrile (1:1) containing 0.2% formic acid as mobile phase B and 0.2% formic acid in water as mobile phase A at a flow rate of 0.60 ml/min through a Phenomonex Gemini C18 column (50 x 2.0 mm column, […]) heated using a Shimadzu CTO-20AC set to 40 °C. AZD0914 was detected in multiple reaction monitoring (MRM) mode by positive ion electrospray ionization using a Sciex API5500 (Toronto, Canada) mass spectrometer. The ion spray voltage was set to 5500 V and turboionspray temperature was 650 °C. AZD0914 was quantitated using the MRM transition 488.2 → 348.2 using a collision energy of 29 eV. The internal standard, (^13C2, ^15N2 AZD0914), was monitored using identical conditions except for the MRM transition of 492.2 → 348.2.

[18] = tested on: Staphylococcus aureus; details: cited from earlier work
[19] = tested on: S. aureus ARC516; test: MIC (CLSI broth microdilution); type: cell-based
[20] = plasma protein binding, mouse; details: in vitro at 1-50 µM
[21] = 11640 tested, ref 2 (supplement)

Kv1.5, sequence (P22460 whole entry): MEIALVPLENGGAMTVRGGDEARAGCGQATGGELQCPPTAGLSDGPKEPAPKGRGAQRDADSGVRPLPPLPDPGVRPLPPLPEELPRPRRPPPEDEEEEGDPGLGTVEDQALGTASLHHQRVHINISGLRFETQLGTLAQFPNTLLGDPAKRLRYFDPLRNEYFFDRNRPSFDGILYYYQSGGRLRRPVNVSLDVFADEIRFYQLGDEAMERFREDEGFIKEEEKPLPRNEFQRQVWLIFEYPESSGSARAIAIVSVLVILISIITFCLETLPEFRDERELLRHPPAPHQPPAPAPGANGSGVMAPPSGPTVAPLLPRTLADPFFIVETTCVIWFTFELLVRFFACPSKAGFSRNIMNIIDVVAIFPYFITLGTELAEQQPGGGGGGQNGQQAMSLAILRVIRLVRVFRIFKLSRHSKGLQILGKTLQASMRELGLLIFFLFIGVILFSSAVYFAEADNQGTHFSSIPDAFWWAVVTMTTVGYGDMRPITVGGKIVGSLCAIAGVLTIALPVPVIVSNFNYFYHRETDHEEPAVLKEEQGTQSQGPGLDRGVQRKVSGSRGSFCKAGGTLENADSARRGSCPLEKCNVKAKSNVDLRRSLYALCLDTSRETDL
Iks/Kv7.1, sequence (P51787 whole entry): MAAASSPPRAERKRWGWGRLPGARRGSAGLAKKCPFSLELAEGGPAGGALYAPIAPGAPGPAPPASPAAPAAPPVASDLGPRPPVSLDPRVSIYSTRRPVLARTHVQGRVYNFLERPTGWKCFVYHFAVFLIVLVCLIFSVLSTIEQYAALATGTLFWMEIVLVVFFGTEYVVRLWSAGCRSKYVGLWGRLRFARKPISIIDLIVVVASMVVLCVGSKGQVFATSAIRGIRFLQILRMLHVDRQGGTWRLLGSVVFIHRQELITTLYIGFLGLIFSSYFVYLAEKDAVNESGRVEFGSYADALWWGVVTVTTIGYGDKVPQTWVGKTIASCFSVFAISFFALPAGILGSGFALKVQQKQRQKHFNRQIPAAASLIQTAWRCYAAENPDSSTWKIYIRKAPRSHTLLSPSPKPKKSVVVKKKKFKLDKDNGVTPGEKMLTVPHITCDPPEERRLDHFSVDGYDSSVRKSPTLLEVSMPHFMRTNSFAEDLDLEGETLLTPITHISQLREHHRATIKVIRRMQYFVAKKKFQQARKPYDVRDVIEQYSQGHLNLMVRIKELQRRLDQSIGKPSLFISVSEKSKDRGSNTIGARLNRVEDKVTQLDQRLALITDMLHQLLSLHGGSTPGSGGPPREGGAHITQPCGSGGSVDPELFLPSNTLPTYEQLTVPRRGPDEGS
hNav1.5, sequence (Q14524 whole entry): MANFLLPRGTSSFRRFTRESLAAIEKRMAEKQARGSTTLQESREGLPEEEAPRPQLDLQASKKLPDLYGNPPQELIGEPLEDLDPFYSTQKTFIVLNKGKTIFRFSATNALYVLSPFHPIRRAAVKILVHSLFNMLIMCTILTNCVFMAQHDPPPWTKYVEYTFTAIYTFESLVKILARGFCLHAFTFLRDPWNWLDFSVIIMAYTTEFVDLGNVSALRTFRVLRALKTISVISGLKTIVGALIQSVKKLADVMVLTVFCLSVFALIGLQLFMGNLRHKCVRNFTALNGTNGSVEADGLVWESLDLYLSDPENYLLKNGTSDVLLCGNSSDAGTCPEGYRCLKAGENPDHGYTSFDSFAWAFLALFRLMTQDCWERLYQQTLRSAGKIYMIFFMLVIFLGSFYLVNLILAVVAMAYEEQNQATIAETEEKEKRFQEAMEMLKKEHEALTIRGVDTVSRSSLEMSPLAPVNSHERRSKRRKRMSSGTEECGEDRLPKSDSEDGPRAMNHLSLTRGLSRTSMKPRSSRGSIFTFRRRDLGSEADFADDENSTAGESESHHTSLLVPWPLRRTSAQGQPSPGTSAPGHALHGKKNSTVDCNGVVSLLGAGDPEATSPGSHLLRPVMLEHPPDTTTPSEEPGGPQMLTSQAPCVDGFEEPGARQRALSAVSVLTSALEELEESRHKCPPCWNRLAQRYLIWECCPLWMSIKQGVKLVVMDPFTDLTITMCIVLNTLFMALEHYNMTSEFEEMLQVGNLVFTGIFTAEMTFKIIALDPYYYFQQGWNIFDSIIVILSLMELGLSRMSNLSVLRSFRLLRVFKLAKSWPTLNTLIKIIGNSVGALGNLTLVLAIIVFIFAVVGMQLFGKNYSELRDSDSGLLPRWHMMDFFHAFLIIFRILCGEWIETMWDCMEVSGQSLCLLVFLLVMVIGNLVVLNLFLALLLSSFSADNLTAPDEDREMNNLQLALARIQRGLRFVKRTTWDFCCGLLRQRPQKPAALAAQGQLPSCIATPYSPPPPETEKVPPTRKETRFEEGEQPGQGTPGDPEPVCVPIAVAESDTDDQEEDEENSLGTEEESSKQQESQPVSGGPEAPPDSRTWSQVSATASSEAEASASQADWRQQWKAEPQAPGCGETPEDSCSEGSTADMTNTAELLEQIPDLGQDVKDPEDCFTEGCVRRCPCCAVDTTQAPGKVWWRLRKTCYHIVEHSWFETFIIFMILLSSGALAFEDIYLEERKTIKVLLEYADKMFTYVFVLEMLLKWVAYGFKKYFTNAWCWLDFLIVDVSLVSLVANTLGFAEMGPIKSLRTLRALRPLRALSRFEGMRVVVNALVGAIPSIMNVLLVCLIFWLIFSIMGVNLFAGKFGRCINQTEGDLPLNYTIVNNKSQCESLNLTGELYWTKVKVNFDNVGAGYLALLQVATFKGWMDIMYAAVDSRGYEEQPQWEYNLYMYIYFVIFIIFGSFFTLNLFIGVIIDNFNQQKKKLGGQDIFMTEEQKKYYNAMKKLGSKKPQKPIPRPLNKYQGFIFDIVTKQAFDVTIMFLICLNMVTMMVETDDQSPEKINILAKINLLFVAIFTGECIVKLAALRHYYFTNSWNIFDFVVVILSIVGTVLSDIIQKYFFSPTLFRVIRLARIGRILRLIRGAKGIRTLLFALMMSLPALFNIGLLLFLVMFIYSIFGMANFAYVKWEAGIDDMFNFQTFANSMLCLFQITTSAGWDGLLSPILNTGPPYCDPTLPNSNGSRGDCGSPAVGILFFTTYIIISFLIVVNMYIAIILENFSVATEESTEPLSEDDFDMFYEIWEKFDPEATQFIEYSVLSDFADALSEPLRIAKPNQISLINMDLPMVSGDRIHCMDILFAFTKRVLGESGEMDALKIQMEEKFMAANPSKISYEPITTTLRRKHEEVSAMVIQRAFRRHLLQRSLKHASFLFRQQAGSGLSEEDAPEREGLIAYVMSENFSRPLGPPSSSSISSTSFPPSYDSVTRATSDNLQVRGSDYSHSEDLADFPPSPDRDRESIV

C[C@@H]1CN2c3c(cc4c(N5C(=O)OC[C@@H]5C)noc4c3F)CC3(C(=O)NC(=O)NC3=O)[C@H]2[C@H](C)O1 [ETX0914]
MIC90 [1]: 1.0^3 µg/ml | MIC Range [1]: 0.5 to 1.0 µg/mL | NOEL ([2]; CV dog telemetry, single dose, iv): 50 mg/kg/day | cardiovascular effects ([2]; IV telemetry dog study, 100 mg/kg): decreases in blood pressure, contractility and PR interval and an increase in the heart rate | other ECG intervals ([2]; dog): no changes to other ECG intervals including QTc or QRS | Cmax ([2]; dog, iv, 50 mg/kg): 63 µg/mL | Cmax ([2]; dog, iv, 100 mg/kg): 160 µg/mL | Salient Pathology Findings ([2]; single dose iv, 100 mg/kg): Emesis Increase in cardiac contractility\relaxation and heart rate Decrease in systolic & diastoloic blood pressure Orthostatic hypertension | MIC [3]: 0.125 µg/mL (≈ 0.256 µM) | MIC90 [4]: 1.0^3 µg/ml | MIC Range [4]: 0.5 to 1.0 µg/mL | predicted efficacious mean AUC in humans [5]: 49 µg·h/mL | fraction unbound [6]: 0.17 | frequency of resistance [7]: < 1.1 × 10^−9 | MIC90 [8]: 0.5^2 µg/ml | MIC Range [8]: 0.03 to 2.0 µg/mL | MIC: N. gonorrhoeae ARC4676 (QR) [9]: 0.125 µg/mL (≈ 0.256 µM) | Micronucleus NOEL [10]: > 400 µM | MIC90 [11]: 0.25^2 µg/ml | MIC Range [11]: ≤ 0.015 to 0.5 µg/mL | IC50 [12]: > 333 µM | IC50 [13]: > 333 µM | IC50 [14]: > 333 µM | Salient Pathology Findings ([15]; 1 month rat (po), 500 mg/kg/day): Reduced activity, pilo-erection, irregular respiration Seminal vesicle: secretory depletion, atrophy Epididymis: cellular debris (minimal) Spleen: increased congestion/haematopoiesis Cecum & rectum: mucosal hyperplasia | Salient Pathology Findings ([15]; 1 month rat (po), 1000 mg/kg/day): As above & testes tubular degeneration partially reversible 3 months post dosing | AUC(0-t) ([15]; both sexes, Han Wistar, blood, oral, rat, 200 mg/kg, day 27, read-out: AUC24h at NOAEL): 1070 µg·h/mL | Cmax ([15]; both sexes, Han Wistar, blood, oral, rat, 200 mg/kg, day 27, read-out: Cmax at NOAEL): 107 µg/mL | NOAEL at 28 days ([15]; both sexes, Han Wistar, oral, rat, 28 days): 200 mg/kg | NOAEL at 28 days ([15]; both sexes, Han Wistar, 1 month rat (po)): 200 mg/kg/day | AUC ([15]; both sexes, Han Wistar, plasma, 1 month rat (po), 200 mg/kg/day): 1100 ± 130 µg·h/mL | Cmax ([15]; both sexes, Han Wistar, plasma, 1 month rat (po), 200 mg/kg/day, read-out: Cmax (±SD)): 110 ± 30 µg/mL | AUC ([15]; both sexes, Han Wistar, plasma, 1 month rat (po), 500 mg/kg/day): 2460 ± 470 µg·h/mL | Cmax ([15]; both sexes, Han Wistar, plasma, 1 month rat (po), 500 mg/kg/day, read-out: Cmax (±SD)): 170 ± 30 µg/mL | AUC ([15]; both sexes, Han Wistar, plasma, 1 month rat (po), 1000 mg/kg/day): 3820 ± 650 µg·h/mL | Cmax ([15]; both sexes, Han Wistar, plasma, 1 month rat (po), 1000 mg/kg/day, read-out: Cmax (±SD)): 260 ± 55 µg/mL | margin of fAUC at rat NOAEL to efficacious fAUC in mouse thigh model ([15]; both, Han Wistar, rat, plasma, oral, 200 mg/kg): 13 fold | haematology or platelet count at the NOAEL ([15]; rat): no significant changes in haematology or platelet count | tolerated dose ([15]; rat, oral, 28 days): up to 1000 mg/kg/day | PPB (%free) [16]: 18.4±0.3 %free | clearance ([17]; CD-1, plasma, mouse, ABT pre-dosing, read-out: CLp after pre-dosing with 1-aminobenzotriazole (ABT)): 15 mL/min/kg | Ka ([17]; CD-1 mouse (female)): 1.7 h⁻¹ | lowering of CLp by ABT pre-dosing ([17]; mouse): ~5 fold | clearance ([17]; plasma, CD-1 mouse (female), IV 3 mg/kg, read-out: Clp (IV)): 70 mL/min/kg | half-life ([17]; plasma, CD-1 mouse (female), IV 3 mg/kg, read-out: T1/2 (IV) (converted)): 0.5 h | Vd ([17]; plasma, CD-1 mouse (female), IV 3 mg/kg, read-out: Vss (IV)): 3.6 L/kg | bioavailability ([17]; plasma, CD-1 mouse (female), IV 3 / PO 10 mg/kg): 46% | Cmax ([17]; plasma, CD-1 mouse (female), PO 10 mg/kg): 1700 nM | half-life ([17]; plasma, CD-1 mouse (female), PO 10 mg/kg, read-out: T1/2 (PO) (converted)): 1.6 h | MIC90 [18, 21]: 0.25^2 µg/ml | MIC Range [18, 21]: ≤ 0.008 to 0.5 µg/mL | MIC90, skin infection (S. aureus) ([18]; Table 2): 0.25 µg/mL (≈ 0.513 µM) | MIC: S. aureus ARC516 [19]: 0.125 µg/mL (≈ 0.256 µM) | MIC ([19]; Staphylococcus aureus, MSSA, read-out: Modal MIC): 0.0625 µg/mL (≈ 0.128 µM) | PPB (%free) [20]: 22.1 %free | PPB (%free) ([20]; listed as AZD0914): 22.1±0.3 %free
